ChEMBL document CHEMBL1138966 (Bioorg Med Chem Lett, 2006)
Converted amounts (≈) assume the structure as drawn.

How the values were obtained:
[1] = target: Human immunodeficiency virus type 1 integrase (Human immunodeficiency virus 1, UniProt Q7ZJM1); assay: Inhibition of strand transfer activity of HIV integrase
[2] = test system: Human immunodeficiency virus 1; assay: Antiviral activity against HIV1 3B in MT4 cells; assay type: functional, organism-based; conditions: Human immunodeficiency virus 1, 3B
MT4 = assay: Cytotoxicity against MT4 cells; assay type: functional; conditions: Homo sapiens
[3] = test system: Human immunodeficiency virus 1; assay: Antiviral activity against HIV1 3B in MT2 cells; assay type: functional, organism-based; conditions: Human immunodeficiency virus 1, 3B
[4] = test system: Human immunodeficiency virus 1; assay: Antiviral activity against HIV1 3B assessed as protein binding effect in MT2 cells; assay type: functional, organism-based; conditions: Human immunodeficiency virus 1, 3B
physchem = conditions: buffer, pH 7.3
[5] = buffer, pH 7.3

Sequence of Human immunodeficiency virus type 1 integrase (Q7ZJM1 whole entry): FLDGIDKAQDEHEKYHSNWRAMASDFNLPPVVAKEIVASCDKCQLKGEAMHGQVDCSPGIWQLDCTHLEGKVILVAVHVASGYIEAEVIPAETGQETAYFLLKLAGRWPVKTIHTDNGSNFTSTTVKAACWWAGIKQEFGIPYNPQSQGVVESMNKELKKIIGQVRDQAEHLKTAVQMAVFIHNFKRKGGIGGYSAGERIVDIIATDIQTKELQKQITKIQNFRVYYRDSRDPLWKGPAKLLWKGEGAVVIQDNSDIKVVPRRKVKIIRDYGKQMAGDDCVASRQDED

solubility [5] [µM] | SMILES | IC50 [1] [nM] | EC50 [2] [nM] | CC50 (MT4) [nM] | EC50 [3] [nM] | EC50 [4] [nM] | solubility (physchem) [µM] | IC50 [2] [nM]
 | COc1c2c(c(O)c3ncccc13)C(=O)N(Cc1ccc(F)cc1)C2 | 50 | 89 | 5100 |  |  |  | 
 | O=C(NCc1ccc(F)cc1)c1ccc2cccnc2c1O | 2000 | > 10000 |  |  |  |  | 
 | O=C1c2c(c(C(=O)N3CCOCC3)c3cccnc3c2O)CN1Cc1ccc(F)cc1 | 36 |  | 4000 | 3.4 | 54 | 97 (≈ 40.9 µg/mL) | 
 | CN(C)C(=O)Oc1c2c(c(O)c3ncccc13)C(=O)N(Cc1ccc(F)cc1)C2 | 760 | 3 | 1500 |  |  |  | 
 | O=C(NCc1ccccn1)c1c2c(c(O)c3ncccc13)C(=O)N(Cc1ccc(F)cc1)C2 | 190 |  | 1600 | 9.8 | 94 | 36 (≈ 15.9 µg/mL) | 
 | CCOC(=O)c1cccc(-c2c3c(c(O)c4ncccc24)C(=O)N(Cc2ccc(F)cc2)C3)c1 | 2100 | 340 | 1000 |  |  |  | 
 | O=C1c2c(cc3cccnc3c2O)CN1Cc1ccc(F)cc1 | 70 |  |  |  |  |  | 100
 | CN(C)C(=O)Oc1c2c(c(O)c3ncccc13)C(=O)N(Cc1ccc(F)cc1)C2=O | 2400 |  | 22000 |  |  | 2.5 (≈ 1.02 µg/mL) | 1180
 | COc1c2c(c(O)c3ncccc13)C(=O)N(Cc1ccc(F)cc1)C2=O | 80 | 7500 | 19000 |  |  | < 1.4 | 
 | CCOc1ccc(-c2c3c(c(O)c4ncccc24)C(=O)N(Cc2ccc(F)cc2)C3)cc1 | 1200 | 780 | 1000 |  |  |  | 
 | CCOC(=O)c1ccccc1-c1c2c(c(O)c3ncccc13)C(=O)N(Cc1ccc(F)cc1)C2 | 350 | 70 | 400 |  |  |  | 
 | O=C1c2c(c(-c3c(F)cccc3F)c3cccnc3c2O)CN1Cc1ccc(F)cc1 | 335 | 11 | 300 |  |  |  | 
7.2 (≈ 3.1 µg/mL) | O=C(NCc1ccc(F)cc1)c1nc(N2CCCCS2(=O)=O)c2cccnc2c1O | 50 |  | 1500 | 3.8 | 88 |  | 
